Data: patent US6242476A, “Leukotriene A4 hydrolase inhibitors” (Santen Pharmaceutical Co., Ltd., priority 1997, dated 2001)

Biological target: T1, LTA4 hydrolase (Cavia porcellus, UniProt P19602)
T1 construct: prepared by extracting from guinea pig lung without purification; from tissue; host or cells: lung of Hartley guinea pig
T1 sequence (P19602 1-611): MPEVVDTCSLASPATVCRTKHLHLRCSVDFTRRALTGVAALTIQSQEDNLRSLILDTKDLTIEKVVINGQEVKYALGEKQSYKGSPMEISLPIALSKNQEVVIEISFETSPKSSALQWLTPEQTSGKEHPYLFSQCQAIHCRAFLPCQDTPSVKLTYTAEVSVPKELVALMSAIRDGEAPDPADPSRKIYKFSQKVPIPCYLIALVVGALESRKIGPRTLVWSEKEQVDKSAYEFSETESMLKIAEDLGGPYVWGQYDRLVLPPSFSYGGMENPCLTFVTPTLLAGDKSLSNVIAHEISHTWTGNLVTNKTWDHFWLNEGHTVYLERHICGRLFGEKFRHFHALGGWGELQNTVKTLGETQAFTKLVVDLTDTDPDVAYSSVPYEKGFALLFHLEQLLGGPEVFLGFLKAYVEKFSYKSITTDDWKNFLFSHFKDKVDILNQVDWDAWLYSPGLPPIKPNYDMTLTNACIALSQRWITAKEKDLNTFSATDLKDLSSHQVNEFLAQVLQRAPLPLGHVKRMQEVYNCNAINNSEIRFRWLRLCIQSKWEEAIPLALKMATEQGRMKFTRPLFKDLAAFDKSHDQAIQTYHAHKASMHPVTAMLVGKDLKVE
Test: Inhibition of LTA4 hydrolase: LTB4 produced from LTA4 by enzyme preparation from guinea pig lung (HPLC)
Format: biochemical
Settings: guinea pig lung enzyme preparation 0.4-0.6 mg protein; HEPES 50 mM, pH 7.8; LTA4 63 μM; DTT 3 mM; 37° C., one minute; read-out: IC50 (concentration of the compounds required to inhibit LTA4 hydrolase activity by 50%)
Protocol: Izumi et al. had reported a method of measuring LTA4 hydrolase activity by measuring an amount of LTB4 produced by an enzymatic reaction using LTA4 as a substrate (Biochem. Biophys. Res. Commun., 135, 139-145 (1986)). Effects of the present compounds on LTA4 hydrolase were examined according to the method described in the literature.
An enzyme preparation used in this pharmacological test was prepared by extracting from guinea pig lung without purification according to the method of Izumi et al. (Biochem. Biophys. Res. Commun., 135, 139-145 (1986)) and the method of Evans et al. (Biochem. Biophys. Acta, 840, 43-50 (1985)). The experimental method is as follows:
Lungs were excised from a Hartley guinea pig (body weight: 330 g). The lungs were homogenized in phosphoric acid buffer (50 mM, pH 7.4, containing 1 mM ethylenediaminetetraacetic acid (EDTA) and 1 mM dithiothreitol (DTT) having weight three times that of the lungs under ice-cooling. The homogenate was centrifuged at low speed (800×g) for 20 minutes, centrifuged at high speed (10,000×g) for 20 minutes and ultracentrifuged (100,000×g) for 60 minutes to give a supernatant. The supernatant was brought to 40% saturation by adding a saturated aqueous ammonium sulfate solution (pH 7.0-7.2, containing 1 mM DTT) dropwise under ice-cooling and centrifuged at high speed (10,000×g) for 20 minutes. The resulting supernatant was brought to 70% saturation by adding a saturated aqueous ammonium sulfate solution (pH 7.0-7.2, containing 1 mM DTT) dropwise and centrifuged at high speed (10,000×g) for 20 minutes. The obtained pellet was dissolved in 2 ml of Tris-acetic acid buffer (20 mM, pH 7.8, containing 1 mM DTT) and dialyzed in 2 liters of the solution to give the enzyme preparation.
LTA4 used, which is the substrate, was prepared by hydrolyzing LTA4 methyl ester and dissolved in ethanol.
In order to examine effects of the test compounds on the enzyme preparation, reactions were performed under the following condition using mixed solutions consisting of the composition shown in Table 1. […]
HEPES buffer 50 mM, pH 7.8
Enzyme preparation 0.4-0.6 mg protein
DTT aqueous solution 3 mM
Test compounds 10^-8 -10^-3 M
The above-mentioned solution (50 μl) was incubated at 37° C. for one minute. To the reaction mixture was added 100 μl of a mixed liquid of acetonitrile-ethanol-acetic acid (150:50:3, volume ratio) under ice-cooling. The mixture was allowed to stand at -20° C. for 30 minutes and centrifuged at high speed (10,000×g) for five minutes to give a supernatant. An amount of LTB4 produced in the supernatant was measured by high-speed liquid chromatography.
The degree of the inhibitory effect of each test compound on LTA4 hydrolase is expressed by the inhibition rate calculated by the following equation. [formula]
A: amount of LTB4 formed in the absence of the test compound
B: amount of LTB4 formed in the presence of the test compound
The results are represented in concentration of the compounds required to inhibit LTA4 hydrolase activity by 50%, i.e., IC50.

Structure (SMILES) | IC50 [nM]
CC(C)c1ccc(CS[C@@H]2C[C@@H](C(=O)O)N(C(=O)[C@H](C)CS)C2)cc1 [Compound d, (4R)-4-(4-isopropylbenzylthio)-1-[(2S)-3-mercapto-2-methylpropionyl]-L-proline] | 290
C[C@H](CS)C(=O)N1C[C@@H](SCc2ccc(C3CCCCC3)cc2)C[C@H]1C(=O)O [Compound h, (4S)-4-(4-cyclohexylbenzylthio)-1-[(2S)-3-mercapto-2-methylpropionyl]-L-proline] | 34
CCCCc1ccc(CS[C@H]2C[C@@H](C(=O)O)N(C(=O)[C@H](C)CS)C2)cc1 [Compound f, (4S)-4-(4-butylbenzylthio)-1-[(2S)-3-mercapto-2-methylpropionyl]-L-proline] | 31
CC(C)c1ccc(CS[C@H]2C[C@@H](C(=O)O)N(C(=O)[C@H](C)CS)C2)cc1 [Compound b, (4S)-4-(4-isopropylbenzylthio)-1-[(2S)-3-mercapto-2-methylpropionyl]-L-proline] | 52
CC(C)c1ccc(CO[C@@H]2C[C@@H](C(=O)O)N(C(=O)[C@H](C)CS)C2)cc1 [Compound e, (4R)-4-(4-isopropylbenzyloxy)-1-[(2S)-3-mercapto-2-methylpropionyl]-L-proline] | 800
CSc1ccc(CS[C@H]2C[C@@H](C(=O)O)N(C(=O)[C@H](C)CS)C2)cc1 [Compound g, 1-[(2S)-3-mercapto-2-methylpropionyl]-(4S)-4-[4-(methylthio)benzylthio]-L-proline] | 120
Cc1ccccc1CS[C@H]1C[C@@H](C(=O)O)N(C(=O)[C@H](C)CS)C1 [Compound a, 1-[(2S)-3-mercapto-2-methylpropionyl]-(4S)-4-(2-methylbenzylthio)-L-proline] | 840
CC(C)c1ccc(CCS[C@H]2C[C@@H](C(=O)O)N(C(=O)[C@H](C)CS)C2)cc1 [Compound c, (4S)-4-(4-isopropylphenyethylthio)-1-[(2S)-3-mercapto-2-methylpropionyl]-L-proline] | 790
